Source: patent US20090082304A1, “Methods of Treating Hematological Malignancies with Nucleoside Analog Drugs” (NORTHWESTERN UNIVERSITY, priority 2004, published 2009)

Columns and labels:
Assay type in all cases: cell-based
MKK3/6 = assay: Immunoblot of phospho-MKK3/6 in MM.1 S cells; settings: 10 μM
Procedure: (§1) 5×10^6 were cells treated with 10 μM 8-NH2-Ado for the indicated times and harvested. Cell pellets were washed with cold phosphate-buffered saline (PBS; 8.1 g NaCl, 1.14 g Na2HPO4, 0.22 g KCl, and 0.25 g/L KH2PO4) and incubated with lysis buffer (50 mM HEPES, 150 mM NaCl, 1.5 mM MgCl2, 1 mM EDTA pH 8.0, 100 mM NaFI, 10 mM Na Pyrophosphate, 500 μM PMSF, 0.5% Triton X-100, 10% glycerol) at 4° C. for one hour. Lysates were centrifuged at 4° C. for 1 minute at 9000×g, and the supernatants were collected and stored at −20° C. Protein concentration was determined by Bio-Rad protein assay (BioRad Laboratories, Hercules, Calif.). Protein, at a concentration of 30 μg, was mixed with sample buffer (125 mM Tris, pH 6.8, 4% SDS, 20% glycerol, 100 mM Dithiothreitol (DTT), and 0.05% bromophenol blue), and fractionated on a pre-cast 8-16% Tris-Glycine gel (Invitrogen/Novex, Carlsbad, Calif.). Proteins were then transferred to a Polyvinylidene Fluoride (PVDF) membrane (Immobilon-P, Millipore, Bedford, Mass.): Following protein transfer, membranes were blocked with 5% non-fat milk in PBS-T (PBS with 0.1% Tween), incubated with the primary antibody overnight at 4° C. and subsequently with horseradish peroxidase linked secondary antibody (Amersham, Arlington Heights, Ill.). […]

PTEN = assay: Immunoblot of PTEN (total and phospho) in MM.1 S cells; settings: 10 μM, 0-6 hours
Procedure: as §1, with “Calif.).” for “Calif.). Proteins were then transferred to a Polyvinylidene Fluoride (PVDF) membrane (Immobilon-P, Millipore, Bedford, Mass.): Following protein transfer, membranes were blocked with 5% non-fat milk in PBS-T (PBS with 0.1% Tween), incubated with the primary antibody overnight at 4° C. and subsequently with horseradish peroxidase linked secondary antibody (Amersham, Arlington Heights, Ill.).”
In addition, the effect of 8-NH2-Ado treatment on PTEN, which encodes a key phosphatase involved in the negative regulation of the PI3K/Akt signaling pathway was assessed (FIG. 5B). […]

MEK1/2 = assay: Immunoblot of phospho-MEK1/2 in MM.1 S cells; settings: 10 μM, 0-6 hours
Procedure: as §1

caspase 8 = assay: Caspase 8 activation immunoblot in MM.1 S cells; settings: 10 μM
Procedure: as §1, with “Calif.).” for “Calif.). Proteins were then transferred to a Polyvinylidene Fluoride (PVDF) membrane (Immobilon-P, Millipore, Bedford, Mass.): Following protein transfer, membranes were blocked with 5% non-fat milk in PBS-T (PBS with 0.1% Tween), incubated with the primary antibody overnight at 4° C. and subsequently with horseradish peroxidase linked secondary antibody (Amersham, Arlington Heights, Ill.).”
MM.1 S cells were exposed to 10 μM 8-NH2-Ado for 0, 0.5, 1, 2, 4 or 6 hours, after which cells were lysed as previously described. […] Total protein levels were also assessed to ensure equal loading and transfer (data not shown). […]

## Nc1ncnc2c1nc(N)n2[C@@H]1O[C@H](CO)[C@@H](O)[C@H]1O [8-NH2-Ado, 8-amino-adenosine]
MKK3/6; by 2 hours
  Phosphorylated MKK3/6 protein levels: decrease significantly
MKK3/6; by 6 hours
  Phosphorylated MKK3/6 protein levels: negligible
PTEN
  total and phospho-PTEN levels: unaltered
MEK1/2
  phosphorylation levels of MEK1/2: appear to increase
Caspase 8
  time at which cleaved and activated caspase 8 appears: 2 to 4 h
